# Reference: patent US10780090B2, “Heteroaryl compounds useful as inhibitors of SUMO activating enzyme” (Millennium Pharmaceuticals, Inc., priority 2014, dated 2020)
# Where two headings read alike, the source gives them in different places.
# Molecular target: recombinant human SAE enzyme (Homo sapiens (Human), UniProt Q9UBT2)
# Experiment: SAE HTRF enzyme assay
# Assay type: biochemical
# Conditions: for inhibition at 0.111 µM: read-out: Percent Inhibition
# Outline: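 Sumoylation of Ubc9-GST by SAE was followed at low ATP (0.5 μM), pH 7.5, 24° C. for 105 min. Product was detected by HTRF with antibody pairs against Flag and GST tags.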
# [1] = SAE inhibition at compound concentration 0.111 μM
# [2] = SAE inhibition, class symbols, legend in nM
# Chain of recombinant human SAE enzyme (Q9UBT2 whole entry): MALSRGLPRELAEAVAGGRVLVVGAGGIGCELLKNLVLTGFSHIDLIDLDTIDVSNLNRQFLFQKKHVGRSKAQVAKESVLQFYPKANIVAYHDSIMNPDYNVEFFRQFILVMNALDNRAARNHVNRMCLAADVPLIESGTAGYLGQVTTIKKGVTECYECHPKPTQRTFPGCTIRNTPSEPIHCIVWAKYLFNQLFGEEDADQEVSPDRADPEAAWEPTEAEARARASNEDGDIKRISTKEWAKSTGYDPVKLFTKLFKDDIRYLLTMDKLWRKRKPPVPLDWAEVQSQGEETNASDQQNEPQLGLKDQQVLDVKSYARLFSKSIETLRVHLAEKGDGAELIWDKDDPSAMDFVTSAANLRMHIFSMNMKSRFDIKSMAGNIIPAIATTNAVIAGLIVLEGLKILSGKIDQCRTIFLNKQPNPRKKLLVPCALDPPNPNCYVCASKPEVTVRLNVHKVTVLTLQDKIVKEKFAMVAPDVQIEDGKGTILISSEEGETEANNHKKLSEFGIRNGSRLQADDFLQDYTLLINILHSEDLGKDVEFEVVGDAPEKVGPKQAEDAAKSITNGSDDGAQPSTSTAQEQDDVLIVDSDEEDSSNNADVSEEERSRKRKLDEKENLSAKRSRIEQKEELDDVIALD
# Chain of recombinant human SAE enzyme (Q9UBE0 whole entry partner): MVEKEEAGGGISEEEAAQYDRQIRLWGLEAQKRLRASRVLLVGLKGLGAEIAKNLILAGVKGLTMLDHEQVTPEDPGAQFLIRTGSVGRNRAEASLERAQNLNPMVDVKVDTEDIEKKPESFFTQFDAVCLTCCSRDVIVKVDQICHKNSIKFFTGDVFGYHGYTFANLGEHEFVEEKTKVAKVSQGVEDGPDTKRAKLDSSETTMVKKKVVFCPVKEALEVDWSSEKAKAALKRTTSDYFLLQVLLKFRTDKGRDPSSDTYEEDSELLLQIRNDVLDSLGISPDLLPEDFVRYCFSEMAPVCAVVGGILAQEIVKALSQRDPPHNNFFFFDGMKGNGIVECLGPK
Structure (SMILES),Percent Inhibition (Concentration 0.111 μM),IC50 (class symbols A/B/C),inhibition at 0.111 µM (Concentration 0.111 μM),also measured
"NS(=O)(=O)OC[C@H]1C[C@@H](Nc2ncncc2C(=O)c2cc([C@@H]3NCCc4ccc(Cl)nc43)c(Cl)s2)C[C@@H]1O (single isomer, unassigned) [I-253a, [(1R,2S,4R)-4-{[5-({5-chloro-4-[(8S)-2-chloro-5,6,7,8-tetrahydro-1,7-naphthyridin-8-yl-2-thienyl}carbonyl)pyrimidin-4-yl]amino}-2-hydroxycyclopentyl]methyl sulfamate or ((1R,2S,4R)-4-{([5-({5-chloro-4-[(8R)-2-chloro-5,6,7,8-tetrahydro-1,7-naphthyridin-8-yl]-2-thienyl}carbonyl)pyrimidin-4-yl]amino}-2-hydroxycyclopentyl]methyl sulfamate]",99,< 10 nM,,
"CC(c1cccc(Cl)c1)c1csc(C(=O)c2cncnc2N[C@@H]2C[C@H](COS(N)(=O)=O)[C@@H](O)C2)c1 (single isomer, unassigned) [I-117a, [(1R,2S,4R)-4-{[5-({4-[(1S)-1-(3-chlorophenyl)ethyl]-2-thienyl}carbonyl)pyrimidin-4-yl]amino}-2-hydroxycyclopentyl]methyl sulfamate or [(1R,2S,4R)-4-{[5-({4-[(1R)-1-(3-chlorophenyl)ethyl]-2-thienyl}carbonyl)pyrimidin-4-yl]amino}-2-hydroxycyclopentyl]methyl sulfamate]",73,10 to 100 nM,,
"NC(c1cccc(Cl)c1)c1cc(C(=O)c2cncnc2NC2CC(O)C(COS(N)(=O)=O)C2)sc1Cl (mixture of isomers) [I-15, [(1R,2S,4R)-4-{[5-({4-[(R)-amino(3-chlorophenyl)methyl]-5-chloro-2-thienyl}carbonyl)pyrimidin-4-yl]amino}-2-hydroxycyclopentyl]methyl sulfamate and [(1R,2S,4R)-4-{[5-({4-[(S)-amino(3-chlorophenyl)methyl]-5-chloro-2-thienyl}carbonyl)pyrimidin-4-yl]amino}-2-hydroxycyclopentyl]methyl sulfamate]",100,< 10 nM,,
"CC(O)(c1cccc(Cl)c1)c1csc(C(=O)c2cncnc2NC2CC(O)C(COS(N)(=O)=O)C2)c1 (mixture of isomers) [I-5, [(1R,2S,4R)-4-{[5-({4-[(1R)-1-(3-chlorophenyl)-1-hydroxyethyl]-2-thienyl}carbonyl)pyrimidin-4-yl]amino}-2-hydroxycyclopentyl]methyl sulfamate and [(1R,2S,4R)-4-{[5-({4-[(1S)-1-(3-chlorophenyl)-1-hydroxyethyl]-2-thienyl}carbonyl)pyrimidin-4-yl]amino}-2-hydroxycyclopentyl]methyl sulfamate]",99,< 10 nM,,
"Cc1ccc2c(n1)C(c1cc(C(=O)c3cncnc3N[C@@H]3C[C@H](COS(N)(=O)=O)[C@@H](O)C3)sc1C)OCC2 (single isomer, unassigned) [I-291a, [(1R,2S,4R)-2-hydroxy-4-{[5-({5-methyl-4-[(8S)-2-methyl-5,8-dihydro-6H-pyrano[3,4-b]pyridin-8-yl]-2-thienyl}carbonyl)pyrimidin-4-yl]amino}cyclopentyl]methyl sulfamate or [(1R,2S,4R)-2-hydroxy-4-{[5-({5-methyl-4-[(8R)-2-methyl-5,8-dihydro-6H-pyrano[3,4-b]pyridin-8-yl]-2-thienyl}carbonyl)pyrimidin-4-yl]amino}cyclopentyl]methyl sulfamate]",,,,Percent Inhibition [1]: 17%; IC50 [2]: 100 to 1000 nM
"NS(=O)(=O)OC[C@H]1C[C@@H](Nc2ncncc2C(=O)c2cc([C@@H]3NCCc4ccc(Cl)cc43)cs2)C[C@@H]1O (mixture of isomers) [I-274, [(1R,2S,4R)-4-{[5-({4-[(1R)-7-chloro-1,2,3,4-tetrahydroisoquinolin-1-yl]-2-thienyl}carbonyl)pyrimidin-4-yl]amino}-2-hydroxycyclopentyl]methyl sulfamate and [(1R,2S,4R)-4-{[5-({4-[(1S)-7-chloro-1,2,3,4-tetrahydroisoquinolin-1-yl]-2-thienyl}carbonyl)pyrimidin-4-yl]amino}-2-hydroxycyclopentyl]methyl sulfamate]",100,< 10 nM,,
"Cc1sc(C(=O)c2cncnc2N[C@@H]2C[C@H](COS(N)(=O)=O)[C@@H](O)C2)cc1[C@@H]1OCCc2ccc(Cl)nc21 (single isomer, unassigned) [I-286a, [(1R,2S,4R)-4-{[5-({4-[(8S)-2-chloro-5,8-dihydro-6H-pyrano[3,4-b]pyridin-8-yl]-5-methyl-2-thienyl}carbonyl)pyrimidin-4-yl]amino}-2-hydroxycyclopentyl]methyl sulfamate or [(1R,2S,4R)-4-{[5-({4-[(8R)-2-chloro-5,8-dihydro-6H-pyrano[3,4-b]pyridin-8-yl]-5-methyl-2-thienyl}carbonyl)pyrimidin-4-yl]amino}-2-hydroxycyclopentyl]methyl sulfamate]",,,,Percent Inhibition [1]: 39%; IC50 [2]: 100 to 1000 nM
"NS(=O)(=O)OC[C@H]1C[C@@H](Nc2ncncc2C(=O)c2cc(CSc3ccccc3)cs2)C[C@@H]1O [I-177, [(1R,2S,4R)-2-hydroxy-4-{[5-({4-[(phenylsulfanyl)methyl]-2-thienyl}carbonyl)pyrimidin-4-yl]amino}cyclopentyl]methyl sulfamate]",,10 to 100 nM,85%,
"Cc1sc(C(=O)c2cncnc2N[C@@H]2C[C@H](COS(N)(=O)=O)[C@@H](O)[C@H]2O)cc1[C@@H]1OCCc2ccccc21 (single isomer, unassigned) [I-250a, [(1R,2R,3S,4R)-4-{[5-({4-[(1R)-3,4-dihydro-1H-isochromen-1-yl]-5-methyl-2-thienyl}carbonyl)pyrimidin-4-yl]amino}-2,3-dihydroxycyclopentyl]methyl sulfamate or [(1R,2R,3S,4R)-4-{[5-({4-[(1S)-3,4-dihydro-1H-isochromen-1-yl]-5-methyl-2-thienyl}carbonyl)pyrimidin-4-yl]amino}-2,3-dihydroxycyclopentyl]methyl sulfamate]",97,< 10 nM,,
"NS(=O)(=O)OC[C@H]1C[C@@H](Nc2ncncc2C(=O)c2cc(CC3=CCCCC3)cs2)C[C@@H]1O [I-140, {(1R,2S,4R)-4-[(5-{[4-(Cyclohex-1-en-1-ylmethyl)-2-thienyl]carbonyl}pyrimidin-4-yl)amino]-2-hydroxycyclopentyl}methyl sulfamate]",,< 10 nM,93%,
"NS(=O)(=O)OC[C@H]1C[C@@H](Nc2ncncc2C(=O)c2ccc(Cc3ccccc3)s2)[C@H](O)[C@@H]1O [I-115, [(1R,2R,3S,4R)-4-({5-[(5-benzyl-2-thienyl)carbonyl]pyrimidin-4-yl}amino)-2,3-dihydroxycyclopentyl]methyl sulfamate]",,,90%,
"COc1ccccc1OCc1csc(C(=O)c2cncnc2N[C@@H]2C[C@H](COS(N)(=O)=O)[C@@H](O)C2)c1 [I-80, [(1R,2S,4R)-2-hydroxy-4-{[5-({4-[(2-methoxyphenoxy)methyl]-2-thienyl}carbonyl)pyrimidin-4-yl]amino}cyclopentyl]methyl sulfamate]",,< 10 nM,98%,
"CC(C)c1ccccc1OCc1csc(C(=O)c2cncnc2N[C@@H]2C[C@H](COS(N)(=O)=O)[C@@H](O)C2)c1 [I-191, [(1R,2S,4R)-2-hydroxy-4-{[5-({4-[(2-isopropylphenoxy)methyl]-2-thienyl}carbonyl)pyrimidin-4-yl]amino}cyclopentyl]methyl sulfamate]",,10 to 100 nM,72%,
"NS(=O)(=O)OC[C@H]1C[C@@H](Nc2ncncc2C(=O)c2cc([C@@H]3OCCc4ccc(Br)cc43)cs2)C[C@@H]1O (single isomer, unassigned) [I-268b, [(1R,2S,4R)-4-{[5-({4-[(1R)-7-bromo-3,4-dihydro-1H-isochromen-l-yl]-2-thienyl}carbonyl)pyrimidin-4-yl]amino}-2-hydroxycyclopentyl]methyl sulfamate or [(1R,2S,4R)-4-{([5-({4-[(1S)-7-bromo-3,4-dihydro-1H-isochromen-1-yl]-2-thienyl}carbonyl)pyrimidin-4-yl]amino}-2-hydroxycyclopentyl]methyl sulfamate]",102,< 10 nM,,
"Cc1sc(C(=O)c2cncnc2N[C@@H]2C[C@H](COS(N)(=O)=O)[C@@H](O)C2)cc1-c1nccc2ccc(Cl)cc12 [I-358, [(1R,2S,4R)-4-[[5-[4-(7-chloro-1-isoquinolyl)-5-methyl-thiophene-2-carbonyl]pyrimidin-4-yl]amino]-2-hydroxy-cyclopentyl]methyl sulfamate]",,,,inhibition at 0.111 µM [1]: 96%; IC50 [2]: < 10 nM
"NS(=O)(=O)OC[C@H]1C[C@@H](Nc2ncncc2C(=O)c2cc(CO)c(Cl)s2)C[C@@H]1O [I-211, {(1R,2S,4R)-4-[(5-{[5-Chloro-4-(hydroxymethyl)-2-thienyl]carbonyl}pyrimidin-4-yl)amino]-2-hydroxycyclopentyl}methyl sulfamate]",,100 to 1000 nM,39%,
"Cc1sc(C(=O)c2cncnc2N[C@@H]2C[C@H](COS(N)(=O)=O)[C@@H](O)C2)cc1[C@@H]1OCCc2ccc(C#N)cc21.Cc1sc(C(=O)c2cncnc2N[C@@H]2C[C@H](COS(N)(=O)=O)[C@@H](O)C2)cc1[C@H]1OCCc2ccc(C#N)cc21 (mixture of isomers) [I-313, [(1R,2S,4R)-4-{[5-({4-[(1R)-7-cyano-3,4-dihydro-1H-isochromen-1-yl]-5-methyl-2-thienyl}carbonyl)pyrimidin-4-yl]amino}-2-hydroxycyclopentyl]methyl sulfamate and [(1R,2S,4R)-4-{[5-({4-[(1S)-7-cyano-3,4-dihydro-1H-isochromen-1-yl]-5-methyl-2-thienyl}carbonyl)pyrimidin-4-yl]amino}-2-hydroxycyclopentyl]methyl sulfamate]",,,,Percent Inhibition [1]: 94%; IC50 [2]: < 10 nM
